The values that follow come from US20110306638A1, “BENZISOXAZOLE PIPERIDINYL DERIVATIVES, PHARMACEUTICAL COMPOSITIONS COMPRISING THE DERIVATIVES AND THEIR USE” (NHWA PHARMA. CORPORATION, priority 2008, published 2011).

The structures appear in SMILES notation. Marks after values point to notes of the source that are not given here.

The target in series [1] is opioid receptor subtype μ (Homo sapiens, UniProt P35372). Briefly: Competitive binding to opioid receptor subtype μ, [3H]Diprenorphine. As for the experimental part:
The respective test compounds were added to the sample tube (final concentration of 10^−5M), incubated at 37° C. for 30 min and placed in ice bath to terminate the reaction. The reaction mixture was filtered through GF/C (Whatman) glass fiber filter by vacuum filtration on a Millipore sample collector. The filter was washed three times with 50 mM Tris-HCl (pH7.4), each with 4 ml; dried and transferred into a 0.5 ml Eppendorf tube, in which 0.5 ml lipophilic scintillation fluid was added. Radioactivity was detected by a LS6500 scintillation counter. Each concentration had three duplicate test tubes and each separate test was repeated 3 to 4 times.
Specific binding CMP value for each sample tube=overall binding CPM value for each sample tube−CPM value of non-specific binding tube.
[Inhibition percentage of competitive binding between the test compound and different opioid receptor subtypes (%)=(100%−specific binding (CPM value)of sample tube/specific binding(CPM value)of solvent group×100%)]
Average was taken for each test drug from three duplicate tubes; each test was repeated two or more times.

Series [2] has as its system Salmonella typhimurium histidine auxotroph mutants TA97, TA98, TA100 and TA102. Briefly: Bacterial reverse mutation test (Ames test). The class given is cell-based. Particulars: 5-5000 μg/plate, −S9 and +S9. As for the experimental part:
Bacterial reverse mutation test on compound I-20 was performed on Salmonella typhimurium histidine auxotroph mutants TA97, TA98, TA100 and TA102 (purchased from MolTox company) using conventional procedures of Ames test.
Observation period: colony counting was done 48 hours after cultivation at 37° C.
Drug solutions with different concentrations were prepared with double distilled water, and the doses were 5, 50, 500, 1000, 5000 μg/plate.
Direct effect of the test drug in the absence of metabolic activity was determined by standard plate incorporation assay. The composition of the test top layer was: 2.0 ml top layer, 0.1 ml drug solution, 0.1 ml bacteria solution and 0.5 ml phosphate buffer.
Pre-incubation was used in the determination of the drug's mutagenic effect in the presence of metabolic activity. The composition of the test top layer is: 2.0 ml top layer, 0.1 ml drug solution, 0.1 ml bacteria solution and 0.5 ml S9 mix.
The resulting drug solution, bacterial solution and S9 mix were first incubated at 35° C. for 30 min while shaking, and then tested according to standard plate incorporation assay. Each dose was tested in three plates, each mutant was tested in the absence or presence of metabolic activity (−S9 or +S9) and repeated twice, the number of revertant colonies was calculated as x±SD.
Background: The Ames test detects mutagens through reverse mutation in bacteria.

The next series deals with Kunming mice. Briefly: Hot-plate test in mice. Particulars: 1 h post dose. The class given is in vivo. Here is the method:
Kunming mice, SPF KM mice were purchased from […] SLAC LABORATORY ANIMAL CO. LTD and kept in normal environment.
The compounds were dissolved in water for injection at a concentration of 4 mg/ml, 2 mg/ml and 1 mg/ml and were given subcutaneously to animals.
Three different doses (10, 20, and 40 mg/kg) were administered to the test groups.
Morphine was used as a positive control and hot plate test was used.
30-40 mice (half male and half female) weighed from 18 to 23 gram were used. First, each mouse was placed on a hot plat at 55° C. to determine basic pain threshold for 2-3 times. Those animals with basic pain threshold of 5-30 s were qualified, unqualified mice were not used. 30 qualified mice were divided into five groups, including negative control group, positive control group, low-dose group, medium-dose group and high-dose group:
Mice in test groups received test sample solution (10 mg/kg, 20 mg/kg, 40 mg/kg) via subcutaneous injection in the neck. Positive control group received subcutaneous injection of morphine (2 mg/kg). One hour later, pain threshold values were determined for mice in each group as post-drug pain threshold. Percentage increase in pain threshold was calculated according to the following equation: […]
(In general: Thermal pain tests record how soon the animal reacts.)

Series [3] in a line: Animal model study of II-9 (repeated dosing, addiction potential, oral absorption). The class given is in vivo.

opioid receptor subtype μ, sequence (P35372 whole entry): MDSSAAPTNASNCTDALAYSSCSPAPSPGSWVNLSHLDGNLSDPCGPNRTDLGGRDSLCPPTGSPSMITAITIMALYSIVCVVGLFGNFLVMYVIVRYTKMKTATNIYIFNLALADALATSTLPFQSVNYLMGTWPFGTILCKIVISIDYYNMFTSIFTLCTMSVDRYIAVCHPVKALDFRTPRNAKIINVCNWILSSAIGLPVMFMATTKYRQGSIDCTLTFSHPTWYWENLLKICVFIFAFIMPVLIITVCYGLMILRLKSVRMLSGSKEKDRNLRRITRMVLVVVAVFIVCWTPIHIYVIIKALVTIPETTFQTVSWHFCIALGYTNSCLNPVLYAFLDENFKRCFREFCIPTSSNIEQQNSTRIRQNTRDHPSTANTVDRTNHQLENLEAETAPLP

For the compound `N#Cc1ccc2ccn(CCCCN3CCC(c4noc5cc(F)ccc45)CC3)c2c1` [II-9, 1-(4-(4-(6-fluorobenzo[d]isoxazol-3-yl)piperidin-1-yl)butyl)-1H-indole-6-carbonitrile], in series [1], the “affinity to opioid receptor subtype μ (in words)” value is listed as “no obvious affinity”. In series [1] (tested concentration 10^−5 mol/L, read-out: μ inhibition percentage of competitive binding), the inhibition at 10 µM came to 53.4 ± 0.7%. In series [2], the Ames test result was “negative”. Besides, the “Percentage increase in pain threshold” value with Kunming mice (10 mg/kg S.c.) was 97.98* %; in the series on Kunming mice (20 mg/kg S.c.), 220.49** %; in the series with Kunming mice (40 mg/kg S.c.) it was 229.39** %. In addition, in series [3] (after repeated dosing), the drug tolerance result is on record as “No drug tolerance is observed”. In addition, in series [3] (in vivo), the potential for addiction result was “rather low”. The “absorption through oral administration” value in series [3] (oral) is on record as “well absorbed”.

A word on the inhibition: it is the change of the read-out against control, counted positive when it falls.
